# What was measured:
# GPER1 = GPER1 (Homo sapiens, UniProt Q99527); settings: cited from earlier work
# zebrafish larvae liver = assay: Larval liver size analysis (ISH for fabp10a, fabp10a:GFP imaging) at 120 hpf; assay type: in vivo; settings: for effect on E2-induced enhancement in liver size: co-exposure with E2 (or knockdown plus E2); for liver size at 120 hpf: compound alone, exposure 110-115 hpf; for liver size in gper1−/− mutants or gper1 morphants: gper1 loss of function larvae
# Description: Zebrafish larvae were exposed to chemicals, dissolved in 0.1% (v/v) dimethylsulfoxide (DMSO), at specified doses for 5 hrs. from 110-115 hours post fertilization (hpf) and analyzed at 120 hpf (unless otherwise specified). Adults were treated for 5-7 hrs. per exposure with frequency as described.
# Larvae were fixed with paraformaldehyde and in situ hybridization (ISH) performed according to standard protocols.^16 gper1 probe was generously gifted by David Volz.^17
# ISH images were obtained by brightfield microscopy, and fabp10a:GFP reporter larvae were imaged using fluorescence microscopy. 3D imaging of fabp10a:GFP fish was performed with a Zeiss LightsheetZ.1. […] were fixed and paraffin embedded. Tissues were sectioned (5 μm) and stained with hematoxylin & eosin (H&E). De-identified formalin-fixed paraffin-embedded human liver sections were obtained from pathology files of the University of Utah (IRB 00091019) and commercially available tissue arrays (OD-CT-DgLiv01-003, US Biomax). Immunohistochemistry (IHC) (using antibodies listed in Table 4) and terminal deoxynucleotidyl transferase dUTP nick-end labeling (TUNEL) staining were performed using established protocols.^16 GPER1 staining was scored by a pathologist based on the mean amount of cytoplasmic reactivity in hepatic cells: 0+, minimal/no staining; 1+, faint/mild staining; 2+, moderate staining; 3+, strong staining.
# hepatic lesions = settings: in vivo; cited from earlier work
# [1] = tested on: hepatocytes in larval liver; settings: for PCNA+ cells in the liver: compound alone, larvae
# Description: ISH images were obtained by brightfield microscopy, and fabp10a:GFP reporter larvae were imaged using fluorescence microscopy. 3D imaging of fabp10a:GFP fish was performed with a Zeiss LightsheetZ.1. […] Tissues were sectioned (5 μm) and stained with hematoxylin & eosin (H&E).
# HepG2 cells = assay: HepG2 signaling immunoblot (p-Akt, p-S6); settings: G15 500 nM co-exposure with E2 10 nM
# Description: HepG2 cells (Sigma-Aldrich, USA) were cultured in phenol-red free, Minimum Essential Medium Eagle (MEM) supplemented with 10% heat-inactivated fetal bovine serum (Hyclone, Thermo Scientific, USA), L-glutamine (2 mM), 1% non-essential amino acids and penicillin-streptomycin (10,000 U/mL), at 37° C. and 5% CO2.
# [2] = tested on: liver tumors in DMBA-exposed WT zebrafish; assay: DMBA chemical carcinogenesis followed by chemical prevention trial
# Description: gper1^−/− or wild-type fry were exposed to 5 ppm dimethylbenzanthrazene (DMBA) for 24 hrs. at 3, 4, and 5 weeks.^19 Fish recovered for 1 week prior to longitudinal chemical exposures commencing at 6 weeks (3 times/week). Fish were monitored daily for survival and tumor formation until 33 weeks post DMBA treatment. Fish were either analyzed immediately after death or at 33 weeks post DMBA exposure, when all remaining fish were sacrificed. Histologic analysis was performed by a board-certified pathologist with expertise in zebrafish liver histology in a blinded fashion.
# fabp10a:GFP+ hepatocytes = settings: zebrafish, in vivo
# Description: To determine the cellular mechanism by which E2 enlarges liver size, cell cycle analysis was performed on propidium iodide-stained fabp10a:GFP^+ hepatocytes by flow cytometry (FIG. 3A).
# [3] = tested on: PI3K/Akt, MAPK/Erk and mTORC1 pathways; assay: Western blot analysis of whole larvae (p-Akt, p-Erk, p-S6); assay type: in vivo, zebrafish
# From the text: Pooled larvae (n=30-40) and cultured cells were homogenized in radioimmunoprecipitation assay (RIPA) lysis buffer and processed as previously described.^15 Lysates were separated by gel electrophoresis and subjected to Western blot.
# [4] = tested on: regenerating larval liver; assay: Liver regeneration after metronidazole (Mtz) hepatocyte ablation in Tg(fabp10a:CFP-NTR) larvae
# GPER1, sequence (Q99527 whole entry): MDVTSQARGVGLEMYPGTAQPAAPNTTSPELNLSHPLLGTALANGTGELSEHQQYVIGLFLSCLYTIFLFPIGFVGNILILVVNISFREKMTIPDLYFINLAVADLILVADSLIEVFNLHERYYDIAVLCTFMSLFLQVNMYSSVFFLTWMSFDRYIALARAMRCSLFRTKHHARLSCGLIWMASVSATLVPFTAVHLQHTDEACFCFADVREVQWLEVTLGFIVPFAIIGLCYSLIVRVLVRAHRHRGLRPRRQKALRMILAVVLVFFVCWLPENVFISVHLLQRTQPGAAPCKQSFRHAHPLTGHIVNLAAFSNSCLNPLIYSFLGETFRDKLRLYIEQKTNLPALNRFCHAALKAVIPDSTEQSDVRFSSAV
molecule,measurement,setting,value
C[C@]12CC[C@@H]3c4ccc(O)cc4C[C@@H](CCCCCCCCC[S+]([O-])CCCC(F)(F)C(F)(F)F)[C@H]3[C@@H]1CC[C@@H]2O (stereo partly shown) [fulvestrant],action on GPER1,GPER1,activated
NC1(c2ccc(-c3nc4ccn5c(=O)[nH]nc5c4cc3-c3ccccc3)cc2)CCC1 [MK-2206],effect on E2-induced enhancement in liver size,"zebrafish larvae liver; WT larvae, 120 hpf",diminished this effect
same,liver size at 120 hpf,zebrafish larvae liver; WT larvae,decreased liver size
CC/C(=C(\c1ccc(O)cc1)c1ccc(OCCN(C)C)cc1)c1ccccc1 [4-OHT],action on GPER1,GPER1,activated
CC/C(=C(\c1ccccc1)c1ccc(OCCN(C)C)cc1)c1ccccc1 [tamoxifen],size and number of hepatic lesions,hepatic lesions,increased the size and number of hepatic lesions
same,action on GPER1,GPER1,agonist
"Brc1cc2c(cc1[C@@H]1Nc3ccccc3[C@@H]3C=CC[C@@H]31)OCO2 (racemic) [G-15, (3aS,4R,9bR)-4-(6-Bromo-1,3-benzodioxol-5-yl)-3a,4,5,9b-3H-cyclopenta[c]quinoline]",PCNA+ cells in the liver,[1],decreased
same,effect on E2-induced increase in PCNA+ hepatocytes,"[1]; zebrafish, in vivo",inhibited
same,effect on E2-associated increases in p-Akt and p-S6,HepG2 cells,blocked
same,effect on E2-induced enhancement in liver size,"zebrafish larvae liver; WT larvae, 120 hpf",specifically inhibited
same,liver size at 120 hpf,zebrafish larvae liver; WT larvae,reduced liver size
same,"impact of blockade on E2-induced tumor size, sex-stratified","[2]; E2+G-15, male vs female fish","predominantly observed in male, less in female fish"
same,liver tumor size (mean),"[2]; E2+G-15 co-exposure, up until 9 mpf",0.4 mm
same,hepatocytes in G2/M phase,fabp10a:GFP+ hepatocytes,2.9%
same,hepatocytes in S phase,fabp10a:GFP+ hepatocytes,16.2%
CC(C)(C#N)c1cc(Cn2cncn2)cc(C(C)(C)C#N)c1 [anastrozole],liver size at 120 hpf,zebrafish larvae liver; WT larvae,decrease in liver size
740Y-P,p-Akt in gper1−/− mutants,[3]; gper1−/− whole larvae,restored to WT levels
same,larvae with increased liver size,"zebrafish larvae liver; WT larvae, 120 hpf, larvae with phenotype out of total observed",77%
same,liver size at 120 hpf,zebrafish larvae liver; WT larvae,increased liver size
same,liver size in gper1−/− mutants or gper1 morphants,zebrafish larvae liver; 120 hpf,rescued liver growth
same,gper1 morphants with small liver phenotype rescued,"zebrafish larvae liver; gper1 morphants, 120 hpf",61%
O=c1cc(N2CCOCC2)oc2c(-c3ccccc3)cccc12 [LY292002],larvae with decreased liver size,"zebrafish larvae liver; 120 hpf, larvae with phenotype out of total observed",72%
same,larvae in which estrogenic effect on liver size was blocked,"zebrafish larvae liver; co-treatment of E2 and LY292002, WT larvae, 120 hpf",86%
CC(=O)c1ccc2c(c1)C1C=CCC1C(c1cc3c(cc1Br)OCO3)N2 (stereo not shown) [G-1],phosphorylated S6 (p-S6),[3]; WT whole larvae,increased phosphorylated S6
same,liver size at 30 hpT after Mtz ablation,"[4]; WT larvae, chemical incubation for 5 hours, vs controls",significantly larger liver size
same,liver regrowth after ablation in gper1−/− mutants,[4]; gper1−/− larvae,not enhanced
same,liver regrowth after ablation in mtor−/− mutants,[4]; mtor−/− larvae,not impacted
same,PCNA+ cells in the liver,[1],fractional increase
same,liver size at 120 hpf,zebrafish larvae liver; WT larvae,increased liver size
same,liver size in gper1−/− mutants or gper1 morphants,zebrafish larvae liver; 120 hpf,did not respond
same,liver size in hypomorphic mtor mutants,"zebrafish larvae liver; mtor mutants, 120 hpf",did not change
same,hepatocytes in G2/M phase,fabp10a:GFP+ hepatocytes,9.4%
same,hepatocytes in S phase,fabp10a:GFP+ hepatocytes,21.8%
same,total hepatocyte number by FACS,fabp10a:GFP+ hepatocytes,increased

# — patent US11040054B2, “Estrogen sensing through GPER1 regulates normal and malignant liver growth” (The Brigham and Women's Hospital, Inc., priority 2016, dated 2021)
